This note sets out measurements from US7858619B2, “Substituted tetrahydroisochinolines as MMP inhibitors, related production method and use as medicine” (sanofi-aventis, priority 2005, dated 2010).

One data set has as its target T1, Gelatinase B (MMP-9) (Homo sapiens, UniProt P14780).
T1 construct: All the MMP-9 present in the samples (proMMP-9; active MMP-9 complexed or not complexed with the respective test substance) was isolated; from tissue; host or cells: freshly isolated human serum
In words: Catalytic inhibition of gelatinase B (MMP-9) in human serum (serum-based assay). Format: biochemical. As to the method: Freshly isolated human serum was shock-frozen in the desired volume in liquid N2 and then stored at −80° C. For the catalytic inhibition of MMP-9 in human serum, the appropriate parts by volume of human serum were thawed at room temperature. 100 parts by volume of undiluted, freshly thawed human serum were mixed with 1 part by volume of test substance, thoroughly mixed and incubated at 37° C. for 1 h. The test substances were dissolved in 100% dimethyl sulfoxide, and a 10 mM stock solution was prepared. For dose-effect plots, the test substances were tested in final concentrations of from […] to 0.001 μM for their catalytic inhibition of MMP-9 in human serum. The final concentration of DMSO in the reaction solution was 1% in each case.
Active MMP-9 from the reaction solutions described above was determined with the aid of a MMP-9 activity assay system (Amersham Pharmacia Biotech Europe GmbH).
After the incubation, one part by volume of the reaction mixture described above was diluted with 20 parts by volume of MMP-9 reaction buffer. The samples diluted in this way were transferred to a 96-well assay plate (Amersham Pharmacia Biotech Europe GmbH, Germany) coated with a specific MMP-9 antibody and incubated at 4° C. overnight. In addition, various concentrations of dissolved, recombinant human pro MMP-9 were likewise transferred onto the 96-well assay plate to construct the standard curve.
100 μl of the respective samples were employed per well. All the MMP-9 present in the samples (proMMP-9; active MMP-9 complexed or not complexed with the respective test substance) was isolated from the sample mixture by the specific MMP-9 antibody and bound to a solid matrix.
The immobilized MMP-9 samples were, after the incubation, washed 4× with 200 μl of washing buffer each time. Subsequently, proMMP-9 present was activated with 50 μl of APMA solution at 37° C. for 1.5 h.
The enzymic activity was measured by adding, after the incubation, 50 μl of detection reagent to each sample and mixing. The absorption of the assay plate charged in this way was measured immediately at 405 nm in an ELISA measuring instrument in order to fix time t=0. The assay plate was then incubated at 37° C. for 2 to 3 h and thereafter the absorption at 405 nm was measured.
Using the standard curve employed, the resulting measurements were converted as follows to the remaining, uninhibited active form of MMP-9 in ng/ml. • X=(Y−b)/m*20 • X=active MMP-9 in [ng/mL] • Y=measured absorption • b=intercept on y axis • m=gradient • 20=dilution factor
The inhibitory effect was calculated as percentage inhibition by the following formula: % inhibition=100−(X2*100/X1) • X1=active MMP-9 in [ng/ml] without test substance • X2=active MMP-9 in [ng/ml] with test substance
The IC50, the concentration of inhibitor which is necessary for 50% inhibition of the enzymic activity, was determined graphically by plotting the percentage inhibitions at various inhibitor concentrations.
The composition of the buffer solutions respectively employed was as follows:
Reaction buffer: • 50 mM Tris-HCl pH 7.6 • 1.5 mM NaCl • 0.5 mM CaCl2 • 1 μM ZnCl2 • 0.01% (v/v) BRIJ 35
Recombinant MMP-9 employed for standard: • 0; 0.5; 1.0; 2.0; 4.0; 8.0; 16.0 ng/ml
Washing buffer: • 0.01 M sodium phosphate buffer pH 7.0 • 0.05% Tween20
APMA solution: • 1 mM p-aminophenyl mercuric acetate • 50 mM Tris-HCl pH 7.6 • 1.5 mM NaCl • 0.5 mM CaCl2 • 1 μM ZnCl2 • 0.01% (v/v) BRIJ 35
Detection reagent: • Modified urokinase • S-2444 peptide substrate • 50 mM Tris-HCl pH 7.6 • 1.5 mM NaCl • 0.5 mM CaCl2 • 1 μM ZnCl2 • 0.01% (v/v) BRIJ 35

Data set [1] in a line: Thermodynamic solubility in PBS buffer pH 7.4, CLND (chemoluminescent nitrogen detector). Format: physicochemical. The settings on record: aqueous buffer, thermodynamic from solid, PBS buffer pH 7.4, room temperature. The protocol:
The solution is then centrifuged at 14 000 rpm for 5 minutes. The solution is removed from the pellet and filtered through a syringe filter (0.45 μm pore size). The presence of a pellet is checked in order to ensure that a saturated solution was present. The filtered clear solution is analyzed by HPLC.
The dissolved amount of substance is quantified using a generic chromatographic method:
Either a calibration line derived from DMSO stock solutions (1-500 μM) of the appropriate substance is used to quantify the corresponding signal in the UV (254 nm) chromatogram of the solubility sample, or the quantification is undertaken via the peak area in the CLND trace. In the case of CLND quantification, caffeine is used as standard in a calibrating dilution.
The limit of quantitation is determined together with the calibration series. The limit of quantitation is normally 1-5 μM with UV detection, 5-10 μM with CLND quantification (depending on the number of nitrogen atoms in the molecule or the extinction coefficient of the molecule). If the intensity of the signal from the dissolved molecule is below the limit of quantitation, the result is reported as less than the limit of quantitation.
The clear solution after incubation for 16 hours is always measured as duplicates, once diluted 40-fold and once directly without dilution. The sample for which the signal is in the linear range of the calibration is used to determine the solubility.

The nature of the next data set: Protein binding (human). Format: in vitro ADME. As to conditions: plasma.
Where [2] appears, read: carboxylic acid derivatives, read-out: MMP-9 activity.
[3] abbreviates: hydroxamic acid derivatives, read-out: MMP-9*.

Each structure is given as a SMILES string. Converted amounts (≈) assume the structure as drawn. Read-outs that look alike come from different tables or passages of the source.

T1 sequence (P14780 107-707 limits assumed): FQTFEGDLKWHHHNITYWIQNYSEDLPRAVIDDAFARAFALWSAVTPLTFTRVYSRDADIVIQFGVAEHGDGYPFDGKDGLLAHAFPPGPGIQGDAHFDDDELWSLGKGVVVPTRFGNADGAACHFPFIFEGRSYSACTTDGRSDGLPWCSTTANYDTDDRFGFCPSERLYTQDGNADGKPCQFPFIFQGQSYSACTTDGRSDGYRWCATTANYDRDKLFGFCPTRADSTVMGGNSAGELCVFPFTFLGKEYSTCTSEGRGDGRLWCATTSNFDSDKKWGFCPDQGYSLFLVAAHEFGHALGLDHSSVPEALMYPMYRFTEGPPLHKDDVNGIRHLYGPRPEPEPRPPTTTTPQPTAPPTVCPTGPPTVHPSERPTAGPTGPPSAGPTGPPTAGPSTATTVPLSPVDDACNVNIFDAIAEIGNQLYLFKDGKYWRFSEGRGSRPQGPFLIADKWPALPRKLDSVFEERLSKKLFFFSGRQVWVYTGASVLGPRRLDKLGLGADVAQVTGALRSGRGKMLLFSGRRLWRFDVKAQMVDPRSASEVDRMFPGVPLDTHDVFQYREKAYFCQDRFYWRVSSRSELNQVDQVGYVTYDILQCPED

Take `CCN(CC)CCOc1ccc2c(c1)CCN(S(=O)(=O)c1ccc(Oc3ccc(OC)cc3)cc1)C2C(=O)O` (stereo not shown) [Exemplary compound 16, 6-(2-Diethylaminoethoxy)-2-[4-(4-methoxyphenoxy)benzenesulfonyl]-1,2,3,4-tetrahydroisoquinoline-1-carboxylic acid]: at Gelatinase B (MMP-9) (setting [2]), the IC50 is 6.6 µM.
A word on the solubility: it is how much of the substance goes into solution per volume. One may read the fraction unbound as free concentration divided by total concentration. A high value points to much free substance. For the compound `CCN(CC)CCOc1ccc2c(c1)CCN(S(=O)(=O)c1ccc(Oc3ccc(F)cc3)cc1)C2C(=O)NO` (stereo not shown) [Exemplary compound 9, 6-(2-Diethylaminoethoxy)-2-[4-(4-fluorophenoxy)benzenesulfonyl]-1,2,3,4-tetrahydroisoquinoline-1-carboxylic acid hydroxyamide], the IC50 on Gelatinase B (MMP-9) (setting [3]) amounted to 0.02 µM. The same compound displayed a solubility at 16 h in data set [1] of 153 µM (≈ 85.3 µg/mL). The same compound had a fraction unbound in the data set “Protein binding (human)” of 0.061.
Consider `O=C(O)C1c2ccc(OCCN3CCCCC3)cc2CCN1S(=O)(=O)c1ccc(Oc2ccc(F)cc2)cc1` (stereo not shown) [Exemplary compound 2, 2-[4-(4-Fluorophenoxy)benzenesulfonyl]-6-(2-piperidin-1-ylethoxy)-1,2,3,4-tetrahydroisoquinoline-1-carboxylic acid], for which the IC50 at Gelatinase B (MMP-9) (setting [2]) stood at 8.7 µM.
Still for that read-out and setting: as for `O=C(O)C1c2ccccc2CCN1S(=O)(=O)c1ccc(Oc2ccc(F)cc2)cc1` (stereo not shown) [Comparative compound], the figure is over 100 µM; as for `COc1ccc(Oc2ccc(S(=O)(=O)N3CCc4cc(OCCN5CCCCC5)ccc4C3C(=O)O)cc2)cc1` (stereo not shown) [Exemplary compound 14, 2-[4-(4-Methoxyphenoxy)benzenesulfonyl]-6-(2-piperidin-1-ylethoxy)-1,2,3,4-tetrahydroisoquinoline-1-carboxylic acid], 7.5 µM.
With `COc1ccc(Oc2ccc(S(=O)(=O)N3CCc4cc(OCCN5CCCCC5)ccc4C3C(=O)NO)cc2)cc1` (stereo not shown) [Exemplary compound 13, 2-[4-(4-Methoxyphenoxy)benzenesulfonyl]-6-(2-piperidin-1-ylethoxy)-1,2,3,4-tetrahydroisoquinoline-1-carboxylic acid hydroxyamide], the IC50 at Gelatinase B (MMP-9) (setting [3]) is 0.6 µM. In data set [1], this compound yielded a solubility at 16 h of 16 µM (≈ 9.31 µg/mL). In addition, the fraction unbound in the data set “Protein binding (human)” was 0.011.
The matching figures for `CN1CCN(CCCOc2ccc3c(c2)CCN(S(=O)(=O)c2ccc(Oc4ccc(F)cc4)cc2)C3C(=O)NO)CC1` (stereo not shown) [Exemplary compound 3, 2-[4-(4-Fluorophenoxy)benzenesulfonyl]-6-[3-(4-methylpiperazin-1-yl)propoxy]-1,2,3,4-tetrahydroisoquinoline-1-carboxylic acid hydroxamide]: 0.2 µM, 23 µM (≈ 13.8 µg/mL) and 0.01.
`O=C(NO)C1c2ccccc2CCN1S(=O)(=O)c1ccc(Oc2ccc(F)cc2)cc1` (stereo not shown) [Comparative compound]: the IC50 at Gelatinase B (MMP-9) (setting [3]) was 2.5 µM. Besides, the solubility at 16 h in data set [1] is under 1 µM. The fraction unbound in the data set “Protein binding (human)” was 0.002.
The matching figures for `CCN(CC)CCOc1ccc2c(c1)CCN(S(=O)(=O)c1ccc(Oc3ccc(OC)cc3)cc1)C2C(=O)NO` (stereo not shown) [Exemplary compound 15, 6-(2-Diethylaminoethoxy)-2-[4-(4-methoxyphenoxy)benzenesulfonyl]-1,2,3,4-tetrahydroisoquinoline-1-carboxylic acid hydroxyamide]: 0.2 µM, 107 µM (≈ 61 µg/mL) and 0.012.
